One assay has as its target EGFR wildtype (WT) (Homo sapiens, UniProt P00533). Nature of the assay: Biochemical EGFR kinase inhibition assay (Lance Ultra TR-FRET), wildtype. The protocol: (§1) Biochemical EGFR kinase assays were conducted using Lance Ultra time-resolved fluorescence resonance energy transfer (TR-FRET) technology from Perkin-Elmer. Compounds of the invention were initially diluted to 20 mM in 100% DMSO for storage and made into kinase buffer solution to create a compound concentration ranging from 0.003 μM and 10 μM.
(§2) Each kinase reactions were incubated at room temperature for 1 hour and then stopped by the addition of 4 μL of stop solution (10 mM EDTA). The specific Europium-labeled-anti-phosphopeptide antibody (PerkinElmer, AD0069) diluted in LANCE detection buffer was then added to a final concentration of 2 nM. After 60 minutes incubation at room temperature the LANCE signal was measured on an EnVision Multilabel Reader (Perkin-Elmer). Excitation wavelength was set at 320 nm and emission monitored at 615 nm (donor) and 665 nm (acceptor). The IC50 values were determined using GraphPad prism software (GraphPad Software, Inc., San Diego, CA, USA).
For orientation: Time-resolved FRET reads energy transfer from a long-lived donor to a nearby acceptor.

The target of a further assay is EGFR L858R/T790M/C797S (Homo sapiens, UniProt P00533, C797S/L858R/T790M). Nature of the assay: Biochemical EGFR kinase inhibition assay (Lance Ultra TR-FRET), triple mutant L858R/T790M/C797S. On the procedure:
as §1, §2

The target of another assay is EGFR Del19/C797S (Homo sapiens, UniProt P00533, C797S/DEL746-750). Nature of the assay: Biochemical EGFR kinase inhibition assay (Lance Ultra TR-FRET), double mutant del19/C797S. On the procedure: as §1, §2
For the next assay, the target named is EGFR Del19/T790M/C797S (Homo sapiens, UniProt P00533, C797S/DEL746-750/T790M). Nature of the assay: Biochemical EGFR kinase inhibition assay (Lance Ultra TR-FRET), triple mutant del19/T790M/C797S. The protocol: as §1, §2
Another assay deals with EGFR L858R/C797S (Homo sapiens, UniProt P00533, C797S/L858R). Nature of the assay: Biochemical EGFR kinase inhibition assay (Lance Ultra TR-FRET), double mutant L858R/C797S. The protocol: as §1, §2
[1] abbreviates: Km ATP, read-out: IC50 WT (nM) Km ATP.
Where [2] appears, read: IC50 L858R/T790M/C797S (nM), 100 μM ATP.
The mark [3] stands for this setting: Km ATP, read-out: IC50 L858R/T790M/C797S (nM) Km ATP.
Setting [4] is: IC50 Del19/C797S (nM), 100 μM ATP.
The mark [5] stands for this setting: Km ATP, read-out: IC50 Del19/C797S (nM) Km ATP.
Where [6] appears, read: IC50 Del19/T790M/C797S (nM), 100 μM ATP.
[7] abbreviates: Km ATP, read-out: IC50 Del19/T790M/C797S (nM) Km ATP.
Setting [8] is: IC50 L858R/C797S (nM), 100 μM ATP.
[9] abbreviates: Km ATP, read-out: IC50 L858R/C797S (nM) Km ATP.

From patent US11981658B2, “Substituted aminopyridine compounds as EGFR inhibitors” (YUHAN CORPORATION, priority 2021, dated 2024) come the findings set out here.

Like-named read-outs stand apart in the source and are kept apart here.

EGFR L858R/T790M/C797S, sequence (P00533 25-1210 T790M/C797S/L858R): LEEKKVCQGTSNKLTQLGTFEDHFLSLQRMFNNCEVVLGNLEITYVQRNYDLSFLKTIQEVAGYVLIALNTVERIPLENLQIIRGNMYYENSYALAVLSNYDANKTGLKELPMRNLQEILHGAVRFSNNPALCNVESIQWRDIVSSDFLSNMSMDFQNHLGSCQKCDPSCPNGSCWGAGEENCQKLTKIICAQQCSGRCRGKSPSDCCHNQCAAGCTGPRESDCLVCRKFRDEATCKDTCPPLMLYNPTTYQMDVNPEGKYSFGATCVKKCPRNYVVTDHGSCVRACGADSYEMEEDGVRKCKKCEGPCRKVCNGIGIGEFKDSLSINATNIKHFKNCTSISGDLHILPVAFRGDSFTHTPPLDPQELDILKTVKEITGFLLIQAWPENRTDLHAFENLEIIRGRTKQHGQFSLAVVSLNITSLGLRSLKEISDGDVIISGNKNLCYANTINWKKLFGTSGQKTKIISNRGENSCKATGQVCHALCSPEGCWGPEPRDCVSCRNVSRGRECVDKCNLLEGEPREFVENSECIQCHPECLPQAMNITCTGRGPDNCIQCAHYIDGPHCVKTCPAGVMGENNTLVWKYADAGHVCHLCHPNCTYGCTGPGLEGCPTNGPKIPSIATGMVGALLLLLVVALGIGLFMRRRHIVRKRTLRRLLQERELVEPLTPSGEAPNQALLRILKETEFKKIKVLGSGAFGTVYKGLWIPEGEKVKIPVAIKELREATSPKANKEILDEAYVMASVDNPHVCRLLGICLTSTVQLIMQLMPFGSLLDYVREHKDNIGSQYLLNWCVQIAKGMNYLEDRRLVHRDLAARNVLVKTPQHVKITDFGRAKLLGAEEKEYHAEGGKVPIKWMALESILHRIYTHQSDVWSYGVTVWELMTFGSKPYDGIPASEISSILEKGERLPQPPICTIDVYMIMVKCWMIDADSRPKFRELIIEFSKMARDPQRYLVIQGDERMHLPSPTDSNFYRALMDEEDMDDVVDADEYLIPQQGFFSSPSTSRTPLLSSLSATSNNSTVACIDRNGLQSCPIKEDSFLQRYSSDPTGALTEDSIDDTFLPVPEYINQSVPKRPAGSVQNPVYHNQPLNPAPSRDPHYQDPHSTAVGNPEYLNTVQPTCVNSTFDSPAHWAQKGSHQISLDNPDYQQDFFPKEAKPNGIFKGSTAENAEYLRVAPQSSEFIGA
EGFR Del19/T790M/C797S, sequence (P00533 with tags, fused parts or gaps DEL746-750/T790M/C797S): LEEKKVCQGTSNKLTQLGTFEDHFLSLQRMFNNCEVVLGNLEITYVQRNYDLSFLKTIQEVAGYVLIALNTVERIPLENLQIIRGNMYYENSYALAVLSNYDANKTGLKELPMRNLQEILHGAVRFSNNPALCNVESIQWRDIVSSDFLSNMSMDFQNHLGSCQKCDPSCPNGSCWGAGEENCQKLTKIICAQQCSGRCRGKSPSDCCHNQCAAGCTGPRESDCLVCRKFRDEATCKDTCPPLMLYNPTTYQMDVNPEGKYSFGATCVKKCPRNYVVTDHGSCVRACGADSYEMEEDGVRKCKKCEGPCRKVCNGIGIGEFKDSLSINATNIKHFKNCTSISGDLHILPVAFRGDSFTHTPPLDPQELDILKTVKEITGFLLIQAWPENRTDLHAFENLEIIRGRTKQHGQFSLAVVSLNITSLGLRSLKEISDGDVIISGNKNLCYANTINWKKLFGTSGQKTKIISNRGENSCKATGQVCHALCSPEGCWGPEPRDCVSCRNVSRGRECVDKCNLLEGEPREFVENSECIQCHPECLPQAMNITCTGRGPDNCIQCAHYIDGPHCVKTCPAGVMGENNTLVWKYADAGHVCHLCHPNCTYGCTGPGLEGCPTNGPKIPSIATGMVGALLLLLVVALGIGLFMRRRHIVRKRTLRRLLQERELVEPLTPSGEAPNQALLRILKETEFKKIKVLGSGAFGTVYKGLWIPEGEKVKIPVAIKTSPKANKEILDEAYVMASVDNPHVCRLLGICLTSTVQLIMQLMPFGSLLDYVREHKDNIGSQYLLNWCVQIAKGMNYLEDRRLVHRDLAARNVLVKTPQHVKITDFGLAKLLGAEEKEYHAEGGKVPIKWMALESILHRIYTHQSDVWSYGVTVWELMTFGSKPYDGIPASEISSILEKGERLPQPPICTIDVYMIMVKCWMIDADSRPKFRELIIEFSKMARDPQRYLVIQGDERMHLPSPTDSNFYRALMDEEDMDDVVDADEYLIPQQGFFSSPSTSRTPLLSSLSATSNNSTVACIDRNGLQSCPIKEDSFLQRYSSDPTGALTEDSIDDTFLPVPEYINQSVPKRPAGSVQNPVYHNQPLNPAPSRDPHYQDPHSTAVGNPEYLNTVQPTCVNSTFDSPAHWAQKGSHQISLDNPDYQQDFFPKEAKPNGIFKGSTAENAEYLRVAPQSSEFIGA
EGFR wildtype (WT), sequence (P00533 25-1210): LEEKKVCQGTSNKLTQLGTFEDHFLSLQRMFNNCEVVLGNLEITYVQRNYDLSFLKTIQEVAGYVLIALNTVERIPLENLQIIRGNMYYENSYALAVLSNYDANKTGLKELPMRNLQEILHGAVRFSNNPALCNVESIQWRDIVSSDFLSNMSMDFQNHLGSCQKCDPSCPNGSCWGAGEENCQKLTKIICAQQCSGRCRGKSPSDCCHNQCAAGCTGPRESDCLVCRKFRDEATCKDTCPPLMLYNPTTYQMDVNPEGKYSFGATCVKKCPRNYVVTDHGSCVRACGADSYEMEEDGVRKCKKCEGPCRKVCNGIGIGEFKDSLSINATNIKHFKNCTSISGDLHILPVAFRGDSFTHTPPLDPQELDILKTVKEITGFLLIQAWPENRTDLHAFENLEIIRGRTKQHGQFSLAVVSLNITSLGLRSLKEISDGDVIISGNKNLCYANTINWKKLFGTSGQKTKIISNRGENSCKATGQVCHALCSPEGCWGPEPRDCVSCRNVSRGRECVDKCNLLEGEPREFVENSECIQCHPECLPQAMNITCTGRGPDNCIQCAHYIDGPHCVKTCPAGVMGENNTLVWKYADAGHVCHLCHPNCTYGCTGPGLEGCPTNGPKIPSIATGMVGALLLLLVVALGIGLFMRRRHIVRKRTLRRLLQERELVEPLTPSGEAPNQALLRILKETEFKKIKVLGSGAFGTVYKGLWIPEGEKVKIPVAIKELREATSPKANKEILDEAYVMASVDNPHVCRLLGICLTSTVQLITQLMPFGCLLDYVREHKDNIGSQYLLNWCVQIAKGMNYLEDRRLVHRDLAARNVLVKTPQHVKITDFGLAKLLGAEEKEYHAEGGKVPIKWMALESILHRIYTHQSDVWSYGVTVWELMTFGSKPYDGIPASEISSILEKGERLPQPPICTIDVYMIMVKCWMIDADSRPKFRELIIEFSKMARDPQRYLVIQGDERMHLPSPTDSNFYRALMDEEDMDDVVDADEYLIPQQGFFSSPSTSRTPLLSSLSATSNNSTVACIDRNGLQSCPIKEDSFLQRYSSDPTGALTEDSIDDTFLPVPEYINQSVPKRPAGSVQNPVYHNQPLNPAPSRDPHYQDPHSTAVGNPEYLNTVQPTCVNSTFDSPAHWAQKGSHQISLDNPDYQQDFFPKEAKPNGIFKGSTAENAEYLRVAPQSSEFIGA
EGFR Del19/C797S, sequence (P00533 with tags, fused parts or gaps DEL746-750/C797S): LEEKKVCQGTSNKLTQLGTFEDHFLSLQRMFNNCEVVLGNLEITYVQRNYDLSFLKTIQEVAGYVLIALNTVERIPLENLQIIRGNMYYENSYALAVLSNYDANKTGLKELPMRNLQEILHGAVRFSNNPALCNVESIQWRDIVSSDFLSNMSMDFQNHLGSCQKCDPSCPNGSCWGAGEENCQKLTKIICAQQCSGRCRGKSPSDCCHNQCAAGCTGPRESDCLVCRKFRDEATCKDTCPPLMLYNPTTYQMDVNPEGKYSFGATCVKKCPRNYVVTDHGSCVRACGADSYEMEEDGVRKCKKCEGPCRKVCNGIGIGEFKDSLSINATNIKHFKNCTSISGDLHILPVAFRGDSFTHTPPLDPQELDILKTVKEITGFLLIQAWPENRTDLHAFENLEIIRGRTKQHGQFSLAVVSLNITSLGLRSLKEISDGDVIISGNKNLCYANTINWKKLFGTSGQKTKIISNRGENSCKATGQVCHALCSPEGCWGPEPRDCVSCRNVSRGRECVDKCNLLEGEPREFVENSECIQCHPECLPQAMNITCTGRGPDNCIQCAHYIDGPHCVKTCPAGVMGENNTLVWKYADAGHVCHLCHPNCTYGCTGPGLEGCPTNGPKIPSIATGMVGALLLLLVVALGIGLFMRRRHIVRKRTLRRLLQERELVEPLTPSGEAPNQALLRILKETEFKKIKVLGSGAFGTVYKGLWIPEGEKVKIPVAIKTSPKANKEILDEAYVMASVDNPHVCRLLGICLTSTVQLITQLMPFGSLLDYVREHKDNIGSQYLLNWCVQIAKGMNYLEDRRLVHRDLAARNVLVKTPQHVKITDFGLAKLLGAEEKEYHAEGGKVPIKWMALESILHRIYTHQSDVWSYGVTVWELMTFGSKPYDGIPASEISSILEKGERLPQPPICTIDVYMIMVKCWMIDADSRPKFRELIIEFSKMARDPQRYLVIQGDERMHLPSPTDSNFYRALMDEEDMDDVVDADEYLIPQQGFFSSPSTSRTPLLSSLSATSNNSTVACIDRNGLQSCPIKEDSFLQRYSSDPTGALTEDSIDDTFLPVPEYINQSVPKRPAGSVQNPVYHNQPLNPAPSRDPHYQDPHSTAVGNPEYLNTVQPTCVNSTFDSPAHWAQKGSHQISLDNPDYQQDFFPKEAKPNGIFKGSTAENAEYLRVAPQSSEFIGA

In the case of `COC1CCN(c2cc(Nc3ccnc(-c4cnn(S(=O)(=O)C5CC5)c4)n3)ncc2C#Cc2cnn(C3CCOCC3)c2)CC1` [Example 98, 2-(1-(Cyclopropylsulfonyl)-1H-pyrazol-4-yl)-N-(4-(4-methoxypiperidin-1-yl)-5-((1-(tetrahydro-2H-pyran-4-yl)-1H-pyrazol-4-yl)ethynyl)pyridin-2-yl)pyrimidin-4-amine], the IC50 against EGFR wildtype (WT) (IC50 WT (nM), 100 μM ATP) is over 10000 nM; on EGFR wildtype (WT) (setting [1]) it was 72 nM; against EGFR L858R/T790M/C797S (setting [2]), 9.9 nM; at EGFR L858R/T790M/C797S (setting [3]), 2.3 nM; against EGFR Del19/C797S (setting [4]), 21.1 nM; at EGFR Del19/C797S (setting [5]) it was 15.5 nM. For the same compound, the IC50 at EGFR Del19/T790M/C797S (setting [6]) was 2.1 nM; at EGFR Del19/T790M/C797S (setting [7]), 2.3 nM; against EGFR L858R/C797S (setting [8]), 101 nM; on EGFR L858R/C797S (setting [9]), 7.5 nM.
On to `CC1(CO)CCN(c2cc(Nc3ccnc(-c4cnn(S(=O)(=O)C5CC5)c4)n3)ncc2C#Cc2cnn(CC3CC3)c2)CC1` [Example 48, (1-(5-((1-(Cyclopropylmethyl)-1H-pyrazol-4-yl)ethynyl)-2-((2-(1-(cyclopropylsulfonyl)-1H-pyrazol-4-yl)pyrimidin-4-yl)amino)pyridin-4-yl)-4-methylpiperidin-4-yl)methanol], for which the IC50 at EGFR wildtype (WT) (IC50 WT (nM), 100 μM ATP) was found to be 2910 nM; at EGFR wildtype (WT) (setting [1]) it was 38.2 nM; on EGFR L858R/T790M/C797S (setting [2]), 9.1 nM; at EGFR L858R/T790M/C797S (setting [3]), 2.3 nM; against EGFR Del19/C797S (setting [4]), 2.2 nM; at EGFR Del19/C797S (setting [5]), 4.3 nM. Also, the IC50 against EGFR Del19/T790M/C797S (setting [6]) worked out at 5.3 nM; on EGFR Del19/T790M/C797S (setting [7]), 4 nM; against EGFR L858R/C797S (setting [8]) it was 15.9 nM; at EGFR L858R/C797S (setting [9]), 7.2 nM.
As to `CC1(CO)CCN(c2cc(Nc3ccnc(-c4cnn(S(=O)(=O)C5CC5)c4)n3)ncc2C#CCN2CCS(=O)(=O)CC2)CC1` [Example 289, 4-(3-(6-((2-(1-(Cyclopropylsulfonyl)-1H-pyrazol-4-yl)pyrimidin-4-yl)amino)-4-(4-(hydroxymethyl)-4-methylpiperidin-1-yl)pyridin-3-yl)prop-2-yn-1-yl)thiomorpholine 1,1-dioxide], the IC50 against EGFR wildtype (WT) (IC50 WT (nM), 100 μM ATP) is 8440 nM; against EGFR L858R/T790M/C797S (setting [2]) it was 0.9 nM; at EGFR Del19/C797S (setting [4]), 3 nM; against EGFR Del19/T790M/C797S (setting [6]) it was 0.2 nM; at EGFR L858R/C797S (setting [8]), 23.1 nM.
On to `CN(C)CCCn1cc(C#Cc2cnc(Nc3ccnc(-c4cnn(S(=O)(=O)C5CC5)c4)n3)cc2N2CCC(NCCF)CC2)cn1` [Example 145, 2-(1-(Cyclopropylsulfonyl)-1H-pyrazol-4-yl)-N-(5-((1-(3-(dimethylamino)propyl)-1H-pyrazol-4-yl)ethynyl)-4-(4-((2-fluoroethyl)amino)piperidin-1-yl)pyridin-2-yl)pyrimidin-4-amine], for which the IC50 stood at 5550 nM at EGFR wildtype (WT) (IC50 WT (nM), 100 μM ATP); 14.2 nM at EGFR wildtype (WT) (setting [1]); 0.3 nM against EGFR L858R/T790M/C797S (setting [2]); 0.1 nM at EGFR L858R/T790M/C797S (setting [3]); 0.7 nM on EGFR Del19/C797S (setting [4]); 0.6 nM on EGFR Del19/C797S (setting [5]). The IC50 against EGFR Del19/T790M/C797S (setting [6]) amounted to 0.2 nM; on EGFR Del19/T790M/C797S (setting [7]), 0.2 nM; on EGFR L858R/C797S (setting [8]), 23.4 nM; at EGFR L858R/C797S (setting [9]) it was 0.5 nM.
In the case of `CC1(CO)CCN(c2cc(Nc3ccnc(-c4cnn(S(=O)(=O)C5CC5)c4)n3)ncc2C#Cc2cnc(CN3CCOCC3)s2)CC1` [Example 192, (1-(2-((2-(1-(Cyclopropylsulfonyl)-1H-pyrazol-4-yl)pyrimidin-4-yl)amino)-5-((2-(morpholinomethyl)thiazol-5-yl)ethynyl)pyridin-4-yl)-4-methylpiperidin-4-yl)methanol], the IC50 was 6.1 nM at EGFR wildtype (WT) (ATP at Km, read-out: IC50 WT (nM), Km ATP); 1480 nM on EGFR wildtype (WT) (IC50 WT (nM), 100 μM ATP); 0.4 nM at EGFR L858R/T790M/C797S (ATP at Km, read-out: IC50 L858R/T790M/C797S (nM), Km ATP); 1.3 nM on EGFR L858R/T790M/C797S (setting [2]); 1.1 nM on EGFR Del19/C797S (ATP at Km, read-out: IC50 Del19/C797S (nM), Km ATP); 1.8 nM on EGFR Del19/C797S (setting [4]). The IC50 on EGFR Del19/T790M/C797S (ATP at Km, read-out: IC50 Del19/T790M/C797S (nM), Km ATP) came out at 1 nM; on EGFR Del19/T790M/C797S (setting [6]) it was 1.5 nM; at EGFR L858R/C797S (ATP at Km, read-out: IC50 L858R/C797S (nM), Km ATP) it was 2.1 nM; against EGFR L858R/C797S (setting [8]), 4.5 nM.
For `Cn1cc(C#Cc2cnc(Nc3ccnc(-c4cnn(S(=O)(=O)C5CC5)c4)n3)cc2N2CCC(C(F)(F)F)CC2)cn1` [Example 65, 2-(1-(Cyclopropylsulfonyl)-1H-pyrazol-4-yl)-N-(5-((1-methyl-1H-pyrazol-4-yl)ethynyl)-4-(4-(trifluoromethyl)piperidin-1-yl)pyridin-2-yl)pyrimidin-4-amine], the IC50 on EGFR wildtype (WT) (IC50 WT (nM), 100 μM ATP) is over 10000 nM; against EGFR L858R/T790M/C797S (setting [2]) it was 39.2 nM; against EGFR Del19/C797S (setting [4]) it was 338 nM; at EGFR Del19/T790M/C797S (setting [6]), 8.2 nM; against EGFR L858R/C797S (setting [8]) it was 604 nM.
As for `CC(C)Nc1cc(Nc2ccnc(-c3cnn(S(=O)(=O)C4CC4)c3)n2)ncc1C#Cc1cnn(CCF)c1` [Example 20, N^2-(2-(1-(Cyclopropylsulfonyl)-1H-pyrazol-4-yl)pyrimidin-4-yl)-5-((1-(2-fluoroethyl)-1H-pyrazol-4-yl)ethynyl)-N^4-isopropylpyridine-2,4-diamine], the IC50 was over 10000 nM at EGFR wildtype (WT) (IC50 WT (nM), 100 μM ATP); 517 nM on EGFR wildtype (WT) (setting [1]); 1.6 nM against EGFR L858R/T790M/C797S (setting [2]); 1.3 nM at EGFR L858R/T790M/C797S (setting [3]); 61.5 nM against EGFR Del19/C797S (setting [4]); 23.1 nM on EGFR Del19/C797S (setting [5]). For the same compound, the IC50 was determined as 2.4 nM against EGFR Del19/T790M/C797S (setting [6]), 1.2 nM at EGFR Del19/T790M/C797S (setting [7]) and 20.4 nM on EGFR L858R/C797S (setting [9]).
For the compound `CC(=O)N1CCC(n2cc(C#Cc3cnc(Nc4ccnc(-c5cnn(S(=O)(=O)C6CC6)c5)n4)cc3N3CCC(NCCN(C)C)CC3)cn2)CC1` [Example 139, 1-(4-(4-((6-((2-(1-(Cyclopropylsulfonyl)-1H-pyrazol-4-yl)pyrimidin-4-yl)amino)-4-(4-((2-(dimethylamino)ethyl)amino)piperidin-1-yl)pyridin-3-yl)ethynyl)-1H-pyrazol-1-yl)piperidin-1-yl)ethan-1-one], the IC50 on EGFR wildtype (WT) (IC50 WT (nM), 100 μM ATP) is 1580 nM; at EGFR wildtype (WT) (setting [1]), 5.4 nM; at EGFR L858R/T790M/C797S (setting [2]), 0.4 nM; on EGFR L858R/T790M/C797S (setting [3]) it was 0.1 nM; against EGFR Del19/C797S (setting [4]) it was 1.4 nM; at EGFR Del19/C797S (setting [5]) it was 0.9 nM. The IC50 against EGFR Del19/T790M/C797S (setting [6]) turned out to be 0.4 nM; on EGFR Del19/T790M/C797S (setting [7]) it was 0.4 nM; against EGFR L858R/C797S (setting [8]) it was 8.2 nM; at EGFR L858R/C797S (setting [9]) it was 0.9 nM.
As for `CC1(CO)CCN(c2cc(Nc3ccnc(-c4cnn(S(=O)(=O)C5CC5)c4)n3)ncc2C#Cc2cnn(CC3CCOCC3)c2)CC1` [Example 231, (1-(2-((2-(1-(Cyclopropylsulfonyl)-1H-pyrazol-4-yl)pyrimidin-4-yl)amino)-5-((1-((tetrahydro-2H-pyran-4-yl)methyl)-1H-pyrazol-4-yl)ethynyl)pyridin-4-yl)-4-methylpiperidin-4-yl)methanol], the IC50 on EGFR wildtype (WT) (IC50 WT (nM), 100 μM ATP) stood at 968 nM; at EGFR wildtype (WT) (setting [1]) it was 6.1 nM; on EGFR L858R/T790M/C797S (setting [2]) it was 1.5 nM; at EGFR L858R/T790M/C797S (setting [3]), 0.9 nM; against EGFR Del19/C797S (setting [4]), 3 nM; on EGFR Del19/C797S (setting [5]), 1.3 nM. Besides, the IC50 on EGFR Del19/T790M/C797S (setting [6]) is 1.6 nM; at EGFR Del19/T790M/C797S (setting [7]), 1.7 nM; at EGFR L858R/C797S (setting [8]), 4.6 nM; on EGFR L858R/C797S (setting [9]), 1.1 nM.
